Results on one compound are retold here after US10077284B2, “UBA5 inhibitors” (THE GOVERNING COUNCIL OF THE UNIVERSITY OF TORONTO, priority 2014, dated 2018).

The target of one data set is T1, GST-UBA5 (Homo sapiens, UniProt Q9GZZ9).
T1 construct: made in house
In words: UBA5 transthiolation assay (UFC1-UFM1 conjugate formation). The format is biochemical.

Data set [1] has as its target T2, NEDD8 activating enzyme (NAE) (Homo sapiens, UniProt Q8TBC4).
T2 construct: purchased Boston Biochem
T2 sequence (Q8TBC4 1-463): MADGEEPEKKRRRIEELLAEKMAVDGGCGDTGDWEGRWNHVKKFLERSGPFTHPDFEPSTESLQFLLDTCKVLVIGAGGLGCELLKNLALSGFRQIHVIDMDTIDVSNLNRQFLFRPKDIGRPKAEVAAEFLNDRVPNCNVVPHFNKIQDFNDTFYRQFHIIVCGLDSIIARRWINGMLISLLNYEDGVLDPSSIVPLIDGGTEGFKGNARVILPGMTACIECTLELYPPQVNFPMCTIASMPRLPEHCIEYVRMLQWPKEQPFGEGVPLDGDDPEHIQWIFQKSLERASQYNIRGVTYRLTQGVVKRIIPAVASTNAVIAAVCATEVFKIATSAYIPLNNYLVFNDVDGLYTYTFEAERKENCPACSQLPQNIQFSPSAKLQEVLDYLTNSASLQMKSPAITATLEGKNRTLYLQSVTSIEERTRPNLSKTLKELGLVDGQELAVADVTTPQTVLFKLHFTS
T2 sequence (Q13564 1-534 partner): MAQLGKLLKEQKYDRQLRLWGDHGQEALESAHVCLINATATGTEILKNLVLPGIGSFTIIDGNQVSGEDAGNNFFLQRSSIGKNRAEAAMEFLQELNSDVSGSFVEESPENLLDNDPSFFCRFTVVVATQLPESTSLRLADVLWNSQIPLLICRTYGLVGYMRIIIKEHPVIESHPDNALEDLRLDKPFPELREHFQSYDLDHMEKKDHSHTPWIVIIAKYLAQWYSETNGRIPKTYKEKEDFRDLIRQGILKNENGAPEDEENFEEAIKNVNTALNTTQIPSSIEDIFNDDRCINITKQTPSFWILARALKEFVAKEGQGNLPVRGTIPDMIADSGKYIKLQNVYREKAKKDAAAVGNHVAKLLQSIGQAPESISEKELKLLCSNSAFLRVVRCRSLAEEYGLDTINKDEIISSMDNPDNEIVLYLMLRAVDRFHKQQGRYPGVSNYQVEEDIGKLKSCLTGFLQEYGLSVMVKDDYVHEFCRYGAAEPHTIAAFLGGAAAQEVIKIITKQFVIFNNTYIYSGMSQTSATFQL
In words: NAE transthiolation assay (NEDD8 transfer to UbcH12). It is filed as biochemical.
Method: (§3) Initial rates were recorded over 30 second time intervals from 0 to 2.5 min (normal kinetics) or 0 to 5 min (inhibition kinetics). Reactions were initiated by the addition of ATP and stopped using 4× Laemmli sample buffer (BioRad). The generated protein conjugates were separated on a 10% non-degenerating SDS-polyacrylamide gel (4-15% gels were used for the UAE transthiolaton assay), followed by Western blot analysis, with the exception of GST-UBA5 where protein bands were detected using Coomassie™ Brilliant Blue R-250 staining or Stain-Free gel imaging for the enzymatic assays (Bio-Rad). Transfers for the UAE and NAE immunoblots were performed using nitrocellulose membranes and blocking and blotting was performed as described above with cellular protein extracts. The His6-tagged Ub-UBCH6 complex was detected using an anti-His mouse monoclonal primary antibody (1:500, abcam). A rabbit anti-NEDD8 polyclonal primary antibody (1:500, BostonBiochem) was used for the detection of the E2-NEDD8 complexes. […] Inhibitory data was fit to a dose-response curve (Y=Bottom+(Top−Bottom)/(1+10^(X-Log IC50))) using GraphPad Prism 6.

The next data set concerns the target UBA5 (Homo sapiens, UniProt Q9GZZ9). To be noted: in the presence of 1.5.Zn (5 μM). The protocol: Initial rates were recorded over 30 second time intervals from 0 to 2.5 min (normal kinetics) or 0 to 5 min (inhibition kinetics). Reactions were initiated by the addition of ATP and stopped using 4× Laemmli sample buffer (BioRad). The generated protein conjugates were separated on a 10% […] SDS-polyacrylamide gel (4-15% gels were used for the UAE transthiolaton assay), followed by Western blot analysis, with the exception of GST-UBA5 where protein bands were detected using Coomassie™ Brilliant Blue R-250 staining or Stain-Free gel imaging for the enzymatic assays (Bio-Rad). Transfers for the UAE and NAE immunoblots were performed using nitrocellulose membranes and blocking and blotting was performed as described above with cellular protein extracts. The His6-tagged Ub-UBCH6 complex was detected using an anti-His mouse monoclonal primary antibody (1:500, abcam). A rabbit anti-NEDD8 polyclonal primary antibody (1:500, BostonBiochem) was used for the detection of the E2-NEDD8 complexes. […] Inhibitory data was fit to a dose-response curve (Y=Bottom+(Top−Bottom)/(1+10^(X-Log IC50))) using GraphPad Prism 6.
Concentrations of UBA5 (1 μM), UFM1 (10 μM), and UFC1 (10 μM) were held constant, while the concentration of ATP was varied from 0 to 1 mM. […] Protein concentrations were held constant as in (A), and concentrations of ATP were varied from 0 to 1 mM (n=3). […]

Data set [2] relates to UFM1 conjugation in K562 cells. The following applies: K562, increasing concentrations, 72 h. The protocol:
(§1) Cells were washed twice with cold PBS and protein extracts were prepared using RIPA buffer with a protease and phosphatase inhibitor cocktail (Roche #11836153001, #04906845001). Protein concentrations were determined using the BCA protein quantification technique (BCA Protein assay kit, Pierce). In each assay, 30 μg of whole cell protein extract was resolved on a 10% SDS-polyacrylamide gel and transferred to a PVDF membrane (Bio-Rad). The membranes were blocked with SuperBlock (Thermo scientific; No. 37515) for at least 1 hr followed by an overnight incubation in primary antibody. Blots were probed with antibodies against UBA5 (abcam; ab109227) and UFM-1 (abcam; ab09305) in a 1:1000 dilution, and anti-β-actin (1:5000 dilution; Cell Signaling, 3700S) was used as a loading control. […] The bands were visualized and analyzed using Image lab software (Bio-Rad).
(§2) The intracellular inhibition of UBA5 was evaluated in order to investigate its use as a molecular tool to study cellular UFMylation by UBA5 inactivation. […] The graphical representation of the intracellular inhibition of UFM1 protein conjugation (evaluated using Western Blot analysis, described in detail within the Materials and Methods submitted in May 2014) is shown in FIG. 26. […]

For data set [3], the system named is UFM1 conjugation in Sk-Luci6 cells. To be noted: Sk-Luci6, increasing concentrations, 72 h. Here is the method: as §1, §2
The test system of data set [4] is Sk-Luci6, A549 and MRC-9 cells. To be noted: all treated cells.
From the text: Confluence of live cells was estimated visually under phase contrast microscopy.
Sk-Luci6, A549 and MRC-9 were each plated as 5×10^3 cells per well and grown in 10% serum on a 96 well plate. […] Cell numbers were obtained at 24 hr time points over a period of 72 hrs using trypan blue exclusion assay (BioRad; #145-0021) and counted using a hemocytometer.

The structures appear in SMILES notation. Values joined by “and” are separate entries in the source; they are usually repeats but may differ in a detail not shown here. Equal values may be shown once. Read-outs that look alike come from different tables or passages of the source. Some results are limits rather than exact numbers.

T1 sequence (Q9GZZ9 whole entry): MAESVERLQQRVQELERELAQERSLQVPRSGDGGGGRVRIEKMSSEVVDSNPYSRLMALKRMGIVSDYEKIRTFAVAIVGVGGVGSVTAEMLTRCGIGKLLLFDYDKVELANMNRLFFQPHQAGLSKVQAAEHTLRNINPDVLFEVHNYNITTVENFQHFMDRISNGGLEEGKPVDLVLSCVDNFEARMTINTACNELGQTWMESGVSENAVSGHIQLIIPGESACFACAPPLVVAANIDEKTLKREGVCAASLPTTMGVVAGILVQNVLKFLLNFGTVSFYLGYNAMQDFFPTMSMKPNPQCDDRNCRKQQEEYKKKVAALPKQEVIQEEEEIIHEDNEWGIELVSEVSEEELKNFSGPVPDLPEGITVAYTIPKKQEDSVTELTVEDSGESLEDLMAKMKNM
Chain of UBA5 (Q9GZZ9 whole entry): as above
Method for GST-UBA5: as §3

For the compound `Nc1ncnc2c1ncn2[C@@H]1O[C@H](C(=O)NCCCCCC(=O)N2CCNCCNCCNCC2)[C@@H](O)[C@H]1O.O=S(=O)([O-])C(F)(F)F.O=S(=O)([O-])C(F)(F)F.[Zn+2]` [Compound 1.5.Zn, (2S,3S,4R,5R)—N-(6-(1,4,7,10-tetraazacyclododecan-1-yl)-6-oxohexyl)-5-(6-amino-9H-purin-9-yl)-3,4-dihydroxytetrahydrofuran-2-carboxamide zinc trifluoromethanesulfonate], the IC50 at GST-UBA5 (Table 1, transthiolation enzymatic assay, read-out: IC50) was 4 µM; on GST-UBA5 (Table 5, n = 3, read-out: IC50), 4 µM; at GST-UBA5 (read-out: IC50, inhibition of UFC1-UFM1 conjugate formation), 4.1 µM and 4 µM; in data set [1] (n=3-6), 103 µM and 66.8 µM. Also, the “relative inhibitor activity against UBA5” value on GST-UBA5 (comparison between series) is “most potent zinc-coordinated complex”. In addition, in data set [1] (ratio of IC50), the “selectivity for UBA5 over NAE” value is > 20 fold and ~20 fold. For the same compound, the VMAX at UBA5 came out at 0.988 ± 0.137 pmol/min. In addition, the kCAT on UBA5 came out at 0.00188 ± 0.000267 s⁻¹. For the same compound, the UFMylation levels result in data set [2] and in data set [3] was “Decreased UFMylation levels” in each case. In addition, the cell death entry in data set [4] is “no cell death”.

As a reminder, the IC50 is the concentration needed to halve the response being measured.
